Assay results taken from PMC7658073 (Clinical Pharmacokinetics, 2020).
“Also recorded” adds a separate entry of the source.

Assays:
Type in all cases: in vivo, human
[1] = Phase I DDI study with midazolam
[2] = Phase I DDI study with sacubitril/valsartan; details: vericiguat at steady state with sacubitril/valsartan
[3] = Phase I DDI study with sildenafil
[4] = midazolam with vericiguat 10 mg vs midazolam alone
[5] = sildenafil 100 mg with vericiguat vs with placebo

Structure (SMILES)	Increase in AUC0–12,md (exposure) [2]	Increase in Cmax,md (peak concentration) [2]	also measured
OCc1ncc2n1-c1ccc(Cl)cc1C(c1ccccc1F)=NC2 [1ʹ-hydroxy midazolam]			Decrease in AUC [1, 4]: 12%; Decrease in Cmax [1, 4]: 16%
C[C@H](C[C@@H](Cc1ccc(-c2ccccc2)cc1)NC(=O)CCC(=O)O)C(=O)O [LBQ657]	unchanged; also recorded: unaffected	unchanged; also recorded: unaffected	
Cc1ncc2n1-c1ccc(Cl)cc1C(c1ccccc1F)=NC2 [Midazolam, reference compound]			Reduction in midazolam exposure ([1]; after 3 days pre-treatment and 1 day co-treatment with vericiguat 10 mg): 18%
CCOC(=O)[C@H](C)C[C@@H](Cc1ccc(-c2ccccc2)cc1)NC(=O)CCC(=O)O [Sacubitril, reference compound]	8%	18%	
CCCc1nn(C)c2c(=O)[nH]c(-c3cc(S(=O)(=O)N4CCN(C)CC4)ccc3OCC)nc12 [Sildenafil, reference compound]			Increase in exposure of sildenafil [3, 5]: 13%; Increase in maximum concentration of sildenafil [3, 5]: 17%; Increase in exposure for sildenafil co-administered with vericiguat ([3]; sildenafil 25, 50 or 100 mg, vs sildenafil with placebo): ≤ 22.4%
CCCCC(=O)N(Cc1ccc(-c2ccccc2-c2nnn[nH]2)cc1)[C@H](C(=O)O)C(C)C [Valsartan, reference compound]	12%	13%	
